Columns and labels:
[1] = tested on: lens epithelial cells from bovine anterior capsules; experiment: Outgrowth of lens epithelial cells from bovine anterior capsules on treated slides; assay type: cell-based
Description: The tension ring is then further treated with glutaraldehyde (GA), rinsed of excess GA, and then treated with an MTX-protein conjugate. […] Control tension rings are treated with unconjugated protein (no MTX).
Outgrowth was followed for six days.

rabbit LECs = settings: mechanism unknown; cited from earlier work
[2] = tested on: epithelial cells of the lens capsule; settings: solution instilled into the anterior chamber after lens removal; cited from earlier work
[3] = treated slides, outgrowth followed for six days, first evaluation

## bovine serum albumin [protein (alone)]
[1]; [3]
  outgrowth of lens epithelial cells: allowed good outgrowth

## O=C(O[C@@H]1Cc2c(O)cc(O)cc2O[C@@H]1c1cc(O)c(O)c(O)c1)c1cc(O)c(O)c(O)c1 [(−)-epigallocatechin-3-gallate (EGCG), (−)-epigallocatechin-3-gallate]
Rabbit LECs
  inhibition of proliferation of rabbit LECs: inhibit the proliferation

## covalent conjugate of MTX: covalent conjugate of MTX with bovine serum albumin prepared using ECDI, attached via glutaraldehyde to the ethylenediamine plasma-treated surface
[1]; slides rinsed and evaluated again, second set of lens capsules
  outgrowth of lens epithelial cells: inhibited outgrowth
[1]; third set of cells on re-used slides
  outgrowth of lens epithelial cells: somewhat inhibited, but not completely
[1]; [3]
  outgrowth of lens epithelial cells: inhibited cell outgrowth

## CN(Cc1cnc2nc(N)nc(N)c2n1)c1ccc(C(=O)N[C@@H](CCC(=O)O)C(=O)O)cc1 [MTX (alone), methotrexate]
[1]; subsequent evaluations after the first evaluation period
  outgrowth of lens epithelial cells: not during subsequent evaluations
[1]; [3]
  outgrowth of lens epithelial cells: inhibited outgrowth
[2]
  destroying epithelial cells of the lens capsule which remain after cataract surgery: effective
